Experimental data published in ChEMBL document CHEMBL5506023, “Design, Synthesis, and Evaluation of Dihydropyrimidine Derivatives as Selective PDE1 Inhibitors for the Treatment of Liver Fibrosis” (J Med Chem, 2024).
The source made the active and inactive calls. The calls are words filed in the database; no cut-off is given here.

Assays:
[1] = target: T1, High affinity 3',5'-cyclic-AMP phosphodiesterase 7A (Homo sapiens, UniProt Q13946); assay: Inhibition of PDE7A (130 to 482 residues) (unknown origin) using 3H-cAMP as substrate
LX-2 [2] = assay: Antifibrotic activity against TGF-beta induced human LX-2 cell activation assessed as downregulation of alpha-SMA expression incubated for 48 hrs by Western blotting analysis; type: functional, cell-based
[3] = target: cAMP and cAMP-inhibited cGMP 3',5'-cyclic phosphodiesterase 10A (Homo sapiens, UniProt Q9Y233); assay: Inhibition of PDE10A (449 to 770 residues) (unknown origin) using 3H-cAMP as substrate
Rattus norvegicus [4] = assay: Antifibrotic activity against bile duct ligation induced Sprague-Dawley rat liver fibrosis model assessed as increase in cGMP level in liver at 2.5 mg/kg,ip administrated once daily for 21 days by ELISA; type: functional, organism-based; conditions: time 21.0 day
Cytochrome P450 1A2 = target: T2, Cytochrome P450 1A2 (Homo sapiens, UniProt P05177); assay: Inhibition of CYP1A2 in human liver microsomes in presence of NADPH; type: ADME, Microsome
T2 sequence (P05177 whole entry): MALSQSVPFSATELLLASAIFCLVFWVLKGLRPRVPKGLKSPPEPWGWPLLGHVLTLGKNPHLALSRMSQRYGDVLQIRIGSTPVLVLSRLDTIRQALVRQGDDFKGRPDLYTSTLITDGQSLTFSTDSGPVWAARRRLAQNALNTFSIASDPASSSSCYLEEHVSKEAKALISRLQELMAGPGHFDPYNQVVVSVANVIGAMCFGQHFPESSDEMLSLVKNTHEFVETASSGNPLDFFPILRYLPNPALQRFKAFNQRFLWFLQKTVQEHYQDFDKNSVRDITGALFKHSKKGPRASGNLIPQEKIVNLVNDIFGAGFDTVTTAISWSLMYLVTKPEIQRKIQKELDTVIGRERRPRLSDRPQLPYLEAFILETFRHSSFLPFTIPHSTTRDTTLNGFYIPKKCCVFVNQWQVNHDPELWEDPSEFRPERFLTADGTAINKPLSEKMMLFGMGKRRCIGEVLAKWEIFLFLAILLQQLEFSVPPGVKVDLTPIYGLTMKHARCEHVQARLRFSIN

[5] = Selectivity index, ratio of IC50 for inhibition of PDE1C2 (147 to 531 residues) (unknown origin) using 3H-cGMP as substrate to IC50 for inhibition of PDE10A (449 to 770 residues) (unknown origin) using 3H-cAMP as substrate
[6] = target: High affinity cGMP-specific 3',5'-cyclic phosphodiesterase 9A (Homo sapiens, UniProt O76083); assay: Inhibition of PDE9A (181 to 506 residues) (unknown origin) using 3H-cGMP as substrate
[7] = AUC (0 to infinity) in Sprague-Dawley rat at 2.5 mg/kg,iv administration; type: ADME, organism-based; conditions: in vivo
Rattus norvegicus [8] = assay: Antifibrotic activity against bile duct ligation induced Sprague-Dawley rat liver fibrosis model assessed as downregulation of collagen I expression in liver at 2.5 mg/kg,ip administrated once daily for 21 days by Western blotting analysis; type: functional, organism-based; conditions: time 21.0 day
LX-2 [9] = assay: Antifibrotic activity against TGF-beta induced human LX-2 cell activation assessed as downregulation of collagen-I expression incubated for 48 hrs by Western blotting analysis; type: functional, cell-based
Cytochrome P450 2D6 = Cytochrome P450 2D6 (Homo sapiens, UniProt P10635); assay: Inhibition of CYP2D6 in human liver microsomes in presence of NADPH; type: ADME, Microsome
[10] = Half life in rat liver microsomes at 1.5 uM; type: ADME, Microsome
[11] = target: High affinity cAMP-specific and IBMX-insensitive 3',5'-cyclic phosphodiesterase 8A (Homo sapiens, UniProt O60658); assay: Inhibition of PDE8A (480 to 820 residues) (unknown origin) using 3H-cAMP as substrate
[12] = MRT in Sprague-Dawley rat at 2.5 mg/kg,iv administration; type: ADME, organism-based; conditions: in vivo
Cytochrome P450 2C19 = Cytochrome P450 2C19 (Homo sapiens, UniProt P33261); assay: Inhibition of CYP2C19 in human liver microsomes in presence of NADPH; type: ADME, Microsome
Rattus norvegicus [13] = assay: Antifibrotic activity against bile duct ligation induced Sprague-Dawley rat liver fibrosis model assessed as reduction in AST level at 2.5 mg/kg,ip administrated once daily for 21 days; type: functional, organism-based; conditions: time 21.0 day
Rattus norvegicus [14] = assay: Antifibrotic activity against bile duct ligation induced Sprague-Dawley rat liver fibrosis model assessed as reduction in fibrotic lesion at 2.5 mg/kg,ip administrated once daily for 21 days by hematoxylin and eosin staining based analysis; type: functional, organism-based; conditions: time 21.0 day
Cytochrome P450 3A4 = Cytochrome P450 3A4 (Homo sapiens, UniProt P08684); assay: Inhibition of CYP3A4-M in human liver microsomes in presence of NADPH; type: ADME, Microsome
LX-2 [15] = assay: Antifibrotic activity against TGF-beta induced human LX-2 cell activation assessed as reduction in cell proliferation at 2.5 to 10 uM incubated for 48 hrs by Edu staining based analysis; type: functional; conditions: dose 2.5-10 µM
Rattus norvegicus [16] = assay: Antifibrotic activity against bile duct ligation induced Sprague-Dawley rat liver fibrosis model assessed as reduction in alpha-smooth muscle actin level in liver at 2.5 mg/kg,ip administrated once daily for 21 days by immunofluorescence staining based analysis; type: functional, organism-based; conditions: time 21.0 day
[17] = Selectivity index, ratio of IC50 for inhibition of PDE1C2 (147 to 531 residues) (unknown origin) using 3H-cGMP as substrate to IC50 for inhibition of PDE2A (580 to 919 residues) (unknown origin) using 3H-cGMP as substrate
Rattus norvegicus [18] = assay: Antifibrotic activity against bile duct ligation induced Sprague-Dawley rat liver fibrosis model assessed as downregulation of alpha-SMA expression in liver at 2.5 mg/kg,ip administrated once daily for 21 days by Western blotting analysis; type: functional, organism-based; conditions: time 21.0 day
[19] = Selectivity index, ratio of IC50 for inhibition of PDE1C2 (147 to 531 residues) (unknown origin) using 3H-cGMP as substrate to IC50 for inhibition of PDE9A (181 to 506 residues) (unknown origin) using 3H-cGMP as substrate
Rattus norvegicus [20] = assay: Antifibrotic activity against bile duct ligation induced Sprague-Dawley rat liver fibrosis model assessed as reduction in total bile acid level at 2.5 mg/kg,ip administrated once daily for 21 days; type: functional, organism-based; conditions: time 21.0 day
[21] = Selectivity index, ratio of IC50 for inhibition of PDE1C2 (147 to 531 residues) (unknown origin) using 3H-cGMP as substrate to IC50 for inhibition of PDE8A (480 to 820 residues) (unknown origin) using 3H-cAMP as substrate
[22] = Selectivity index, ratio of IC50 for inhibition of PDE1C2 (147 to 531 residues) (unknown origin) using 3H-cGMP as substrate to IC50 for inhibition of PDE5A (535 to 860 residues) (unknown origin) using 3H-cGMP as substrate
[23] = target: T1, High affinity 3',5'-cyclic-AMP phosphodiesterase 7A; assay: Inhibition of PDE7A (130 to 482 residues) (unknown origin) using 3H-cAMP as substrate at 5000 nM relative to control
[24] = target: cGMP-inhibited 3',5'-cyclic phosphodiesterase 3A (Homo sapiens, UniProt Q14432); assay: Inhibition of PDE3A (679 to 1087 residues) (unknown origin) using 3H-cAMP as substrate at 5000 nM relative to control
cGMP-inhibited 3',5'-cyclic phosphodiesterase 3A, sequence (Q14432 whole entry, the tested form may be a part): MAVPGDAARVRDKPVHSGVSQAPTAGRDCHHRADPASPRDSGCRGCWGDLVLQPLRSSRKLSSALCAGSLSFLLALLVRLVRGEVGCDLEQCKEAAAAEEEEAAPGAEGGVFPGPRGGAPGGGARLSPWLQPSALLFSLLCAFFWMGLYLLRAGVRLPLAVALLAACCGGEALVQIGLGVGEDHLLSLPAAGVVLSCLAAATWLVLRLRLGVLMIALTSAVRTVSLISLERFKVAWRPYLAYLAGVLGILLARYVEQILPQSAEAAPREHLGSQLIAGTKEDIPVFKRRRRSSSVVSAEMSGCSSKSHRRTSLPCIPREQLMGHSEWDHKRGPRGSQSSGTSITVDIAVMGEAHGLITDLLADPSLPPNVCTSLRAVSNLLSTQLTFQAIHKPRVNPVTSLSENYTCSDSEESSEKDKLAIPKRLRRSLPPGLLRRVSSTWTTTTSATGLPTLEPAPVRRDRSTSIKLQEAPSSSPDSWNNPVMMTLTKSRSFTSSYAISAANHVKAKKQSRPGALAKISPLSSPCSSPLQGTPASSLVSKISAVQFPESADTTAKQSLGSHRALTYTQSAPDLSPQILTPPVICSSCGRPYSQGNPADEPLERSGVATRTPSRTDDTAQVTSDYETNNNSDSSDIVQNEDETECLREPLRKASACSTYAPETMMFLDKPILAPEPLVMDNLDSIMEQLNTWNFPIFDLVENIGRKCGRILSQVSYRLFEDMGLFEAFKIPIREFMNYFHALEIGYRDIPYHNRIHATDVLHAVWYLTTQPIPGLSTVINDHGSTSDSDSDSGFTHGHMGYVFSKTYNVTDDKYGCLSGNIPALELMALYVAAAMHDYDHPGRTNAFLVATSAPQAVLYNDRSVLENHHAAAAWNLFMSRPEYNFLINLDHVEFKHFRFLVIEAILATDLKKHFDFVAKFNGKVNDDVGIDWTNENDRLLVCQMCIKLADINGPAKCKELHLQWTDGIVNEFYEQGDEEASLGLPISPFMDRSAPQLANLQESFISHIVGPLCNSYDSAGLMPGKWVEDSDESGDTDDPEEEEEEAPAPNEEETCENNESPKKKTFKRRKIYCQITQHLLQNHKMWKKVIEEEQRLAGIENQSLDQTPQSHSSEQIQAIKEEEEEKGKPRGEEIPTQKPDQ

T1 sequence (Q13946 whole entry, the tested form may be a part): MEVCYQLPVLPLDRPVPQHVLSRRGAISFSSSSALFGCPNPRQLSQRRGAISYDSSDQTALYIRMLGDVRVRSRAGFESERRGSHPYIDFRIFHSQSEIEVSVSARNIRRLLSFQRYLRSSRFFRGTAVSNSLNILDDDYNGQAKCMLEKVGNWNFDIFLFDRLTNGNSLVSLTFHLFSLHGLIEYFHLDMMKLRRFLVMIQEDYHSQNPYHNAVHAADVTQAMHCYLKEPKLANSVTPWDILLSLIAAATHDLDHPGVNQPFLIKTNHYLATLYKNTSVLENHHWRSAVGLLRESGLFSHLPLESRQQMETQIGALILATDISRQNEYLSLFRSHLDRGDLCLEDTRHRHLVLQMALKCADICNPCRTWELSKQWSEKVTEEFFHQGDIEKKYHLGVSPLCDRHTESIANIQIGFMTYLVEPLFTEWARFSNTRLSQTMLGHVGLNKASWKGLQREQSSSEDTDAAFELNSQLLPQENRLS
High affinity cAMP-specific and IBMX-insensitive 3',5'-cyclic phosphodiesterase 8A, sequence (O60658 whole entry, the tested form may be a part): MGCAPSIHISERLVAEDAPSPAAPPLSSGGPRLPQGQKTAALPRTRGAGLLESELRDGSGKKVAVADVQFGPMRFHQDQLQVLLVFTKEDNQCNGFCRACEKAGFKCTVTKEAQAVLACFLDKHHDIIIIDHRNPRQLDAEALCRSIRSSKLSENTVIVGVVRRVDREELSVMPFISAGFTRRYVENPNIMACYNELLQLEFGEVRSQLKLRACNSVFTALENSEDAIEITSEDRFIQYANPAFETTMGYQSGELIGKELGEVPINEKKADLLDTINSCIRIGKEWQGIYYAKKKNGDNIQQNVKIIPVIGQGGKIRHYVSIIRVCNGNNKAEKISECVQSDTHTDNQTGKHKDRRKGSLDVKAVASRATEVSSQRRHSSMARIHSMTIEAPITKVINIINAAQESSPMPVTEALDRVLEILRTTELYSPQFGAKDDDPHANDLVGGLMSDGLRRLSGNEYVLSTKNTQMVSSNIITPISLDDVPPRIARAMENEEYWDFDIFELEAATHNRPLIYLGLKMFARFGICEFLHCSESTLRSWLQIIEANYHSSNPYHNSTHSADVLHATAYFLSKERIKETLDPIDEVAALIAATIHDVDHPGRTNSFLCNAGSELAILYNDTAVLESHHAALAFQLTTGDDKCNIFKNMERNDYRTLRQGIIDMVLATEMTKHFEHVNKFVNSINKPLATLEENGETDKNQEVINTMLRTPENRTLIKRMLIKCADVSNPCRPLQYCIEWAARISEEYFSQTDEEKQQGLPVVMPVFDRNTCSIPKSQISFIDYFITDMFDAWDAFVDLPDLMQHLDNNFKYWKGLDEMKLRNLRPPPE
Cytochrome P450 3A4, sequence (P08684 whole entry): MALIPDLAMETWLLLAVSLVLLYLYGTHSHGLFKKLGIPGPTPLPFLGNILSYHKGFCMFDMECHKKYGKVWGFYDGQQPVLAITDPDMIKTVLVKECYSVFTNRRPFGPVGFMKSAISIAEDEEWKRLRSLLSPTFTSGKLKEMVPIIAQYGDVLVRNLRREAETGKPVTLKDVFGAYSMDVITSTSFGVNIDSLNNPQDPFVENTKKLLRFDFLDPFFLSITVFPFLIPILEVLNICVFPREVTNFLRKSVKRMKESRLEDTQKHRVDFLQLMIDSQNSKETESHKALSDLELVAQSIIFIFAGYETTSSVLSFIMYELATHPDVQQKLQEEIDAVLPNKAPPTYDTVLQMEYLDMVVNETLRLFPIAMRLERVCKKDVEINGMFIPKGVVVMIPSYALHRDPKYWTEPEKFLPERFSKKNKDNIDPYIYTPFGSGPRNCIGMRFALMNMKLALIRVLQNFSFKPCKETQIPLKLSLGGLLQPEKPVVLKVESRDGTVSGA
Cytochrome P450 2C19, sequence (P33261 whole entry): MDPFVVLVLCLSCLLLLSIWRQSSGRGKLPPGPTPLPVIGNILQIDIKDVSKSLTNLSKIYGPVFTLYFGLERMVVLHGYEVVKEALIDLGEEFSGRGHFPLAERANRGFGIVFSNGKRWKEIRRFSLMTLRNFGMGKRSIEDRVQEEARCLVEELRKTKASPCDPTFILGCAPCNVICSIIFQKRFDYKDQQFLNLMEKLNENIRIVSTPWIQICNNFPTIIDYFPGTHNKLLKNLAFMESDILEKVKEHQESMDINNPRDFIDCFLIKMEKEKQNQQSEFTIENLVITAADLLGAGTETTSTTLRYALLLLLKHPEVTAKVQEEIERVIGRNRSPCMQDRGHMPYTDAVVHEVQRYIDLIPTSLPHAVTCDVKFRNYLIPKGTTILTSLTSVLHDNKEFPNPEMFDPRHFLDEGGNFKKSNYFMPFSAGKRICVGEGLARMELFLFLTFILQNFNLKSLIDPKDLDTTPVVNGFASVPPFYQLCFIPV
High affinity cGMP-specific 3',5'-cyclic phosphodiesterase 9A, sequence (O76083 whole entry, the tested form may be a part): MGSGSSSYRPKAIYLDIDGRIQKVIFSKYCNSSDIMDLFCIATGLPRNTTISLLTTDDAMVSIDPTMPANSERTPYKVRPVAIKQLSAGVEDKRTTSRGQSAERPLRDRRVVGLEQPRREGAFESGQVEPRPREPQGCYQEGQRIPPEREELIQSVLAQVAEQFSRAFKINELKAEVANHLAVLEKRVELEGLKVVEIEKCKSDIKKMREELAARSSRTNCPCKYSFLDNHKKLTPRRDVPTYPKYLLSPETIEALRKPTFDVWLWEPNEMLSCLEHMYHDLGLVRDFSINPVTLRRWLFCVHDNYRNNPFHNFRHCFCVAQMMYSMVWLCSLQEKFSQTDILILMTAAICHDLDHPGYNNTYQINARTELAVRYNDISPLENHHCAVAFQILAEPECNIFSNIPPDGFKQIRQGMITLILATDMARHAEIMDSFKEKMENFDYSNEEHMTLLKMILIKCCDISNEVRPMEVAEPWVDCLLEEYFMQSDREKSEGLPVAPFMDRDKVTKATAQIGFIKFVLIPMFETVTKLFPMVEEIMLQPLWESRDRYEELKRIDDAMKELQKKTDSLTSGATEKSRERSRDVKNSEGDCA
Cytochrome P450 2D6, sequence (P10635 whole entry): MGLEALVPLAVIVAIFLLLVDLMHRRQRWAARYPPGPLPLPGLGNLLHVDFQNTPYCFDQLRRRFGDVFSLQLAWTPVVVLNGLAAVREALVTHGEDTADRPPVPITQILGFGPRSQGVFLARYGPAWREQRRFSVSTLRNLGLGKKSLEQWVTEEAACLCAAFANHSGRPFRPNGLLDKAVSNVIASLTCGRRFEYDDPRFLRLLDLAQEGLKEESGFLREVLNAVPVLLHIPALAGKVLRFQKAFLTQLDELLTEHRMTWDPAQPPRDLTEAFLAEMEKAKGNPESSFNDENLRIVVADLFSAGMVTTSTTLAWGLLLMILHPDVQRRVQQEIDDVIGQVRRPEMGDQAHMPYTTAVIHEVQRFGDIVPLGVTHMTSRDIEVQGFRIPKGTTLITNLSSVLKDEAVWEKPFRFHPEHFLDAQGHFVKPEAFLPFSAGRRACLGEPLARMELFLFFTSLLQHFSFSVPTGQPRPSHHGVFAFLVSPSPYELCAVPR

Compound: CC1=C(C(=O)OCC2CCCCC2)C(c2ccc(OC(F)F)c(OCC3CC3)c2)N(C(=O)SCc2ccccc2)C(=O)N1 (stereo not drawn)
- IC50 [1]: > 5000 nM
- Activity (LX-2 [2]): Dose-Dependent Effect
- IC50 [3]: 597 nM
- Activity (Rattus norvegicus [4]): inactive
- IC50 (Cytochrome P450 1A2): > 25000 nM
- Ratio IC50 [5]: 60
- IC50 [6]: 2100 nM
- AUC(0-inf) [7]: 6320 ng·h/mL
- Activity (Rattus norvegicus [8]): Active
- Activity (LX-2 [9]): Dose-Dependent Effect
- IC50 (Cytochrome P450 2D6): > 25000 nM
- half-life at 1.5 µM [10]: 0.235 h
- IC50 [11]: 1760 nM
- MRT [12]: 1.77 h
- IC50 (Cytochrome P450 2C19): > 25000 nM
- Activity (Rattus norvegicus [13]): Active
- Activity (Rattus norvegicus [14]): Active
- IC50 (Cytochrome P450 3A4): > 25000 nM
- Activity (LX-2 [15]): Active
- Activity (Rattus norvegicus [16]): Active
- Ratio IC50 [17]: 354
- Activity (Rattus norvegicus [18]): Active
- Ratio IC50 [19]: 210
- Activity (Rattus norvegicus [20]): Active
- Ratio IC50 [21]: 176
- Ratio IC50 [22]: 168
- inhibition [23]: < 50%
- inhibition [24]: < 50%
